Laboratory results published in patent US9642922B2, “Caspase-triggered nano-aggregation probes and methods of use” (The Board of Trustees of the Leland Stanford Junior …, priority 2013, dated 2017).
Numbered stars: 1 amine (or outer) side, 2 acyl side, 3 side chain; on linkers, the order of the positions; unused ones are H or OH. Square brackets hold non-standard residues; d marks the D form. Peptide text beside a SMILES is read from it. * marks the point of attachment. DOTA = O=C(O)CN1CCN(CC(=O)O)CCN(CC(=O)*)CCN(CC(=O)O)CC1; X1 = O=C(C1CSC(c2nc3ccc(N[*:1])cc3s2)=N1)[*:2]; X3 = c1cnc2ccc(OCCCN*)cc2c1; SEt = CCS*

Columns and labels:
[1] = Stability of PET tracers in mouse serum; type: in vitro ADME; settings: 1 h incubation, 37° C.
Method: To the mouse serum (500 μL) 100 μL (approximately 100 μCi/3.7 MBq) of radioactive sample was added and the mixture was incubated at 37° C. At each time point, 100 μL of sample was taken and after mixing with 100 μL of acetonitrile was centrifuged at 9,400×g for 5 min. The resulting supernatants were collected, and an aliquot of each supernatant (100 μL) was diluted with 100 μL of water and analyzed via the same HPLC method used for quality control (fitted with a highly sensitive positron detector for radioactivity). The percent ratio of intact compound to the total radioactivity on the HPLC chromatogram was calculated as %=[(peak area for intact compound)/(total peak area)]×100.

[2] = molecular target: T1, caspase-3 (Homo sapiens, UniProt P42574); assay: Incubation of PET tracer with recombinant caspase-3, radio-HPLC; type: biochemical; settings: same condition
T1 sequence (P42574 29-175 limits assumed): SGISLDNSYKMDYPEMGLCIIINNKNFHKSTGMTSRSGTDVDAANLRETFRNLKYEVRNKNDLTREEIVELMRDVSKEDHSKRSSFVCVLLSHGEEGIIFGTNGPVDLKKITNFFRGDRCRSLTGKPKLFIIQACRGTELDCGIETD
T1 sequence (P42574 176-277 limits assumed): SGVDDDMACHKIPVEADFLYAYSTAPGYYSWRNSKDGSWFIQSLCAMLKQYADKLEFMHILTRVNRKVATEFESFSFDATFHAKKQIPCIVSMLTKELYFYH
Method: To evaluate the activatable PET tracer 1 for caspase-3 detection, it was first incubated with recombinant caspase-3 in buffer.

[3] = system: HeLa tumor xenograft; assay: PET imaging of HeLa tumor xenograft-bearing nude mice; type: in vivo, mouse
Method: One group of animals was scanned at baseline (before treatment) and 4 days post treatment with 0.2 mg doxorubicin injected into the tumor. On the day of scanning, the animals were moved from their housing area to the PET scanner around 1 h prior to the experiment. They were constrained shortly in a tail veiner and injected intravenously, with 440±97 μCi (16±3 MBq) [^18F]C-SNAT formulation. They were anesthetized with 2% isoflurane shortly before placement in an R4 microPET scanner (Siemens Medical Solutions, USA). The anesthesia were continued with 2% isoflurane doing 5 min of acquisition. Scans using the control tracer 1-D (173±73 μCi/9±4 Mbq in 200 μL formulation) were carried out in a similar manner using two groups (one baseline and one treated) instead of the same animals at baseline and after treatment. The images were reconstructed using a standard 2D reconstruction without attenuation correction.
The reconstructed images were analyzed by making two volumes of interest (VOI), one on the tumor and one located on the left shoulder corresponding to muscle/bone mixture. The percent of injected dose per gram tissue (% ID/g) was calculated in each VOI and the ratio between tumor and muscle uptake was calculated based on this uptake (uptake in tumor/uptake in muscle region). The effect of treatment was calculated as the difference in uptake of [^18F]C-SNAT at baseline and after treatment.
Evaluation of activatable PET tracer 1 and control tracer 1-D for PET imaging of caspase-3 activity in vivo was performed in HeLa tumor xenograft-bearing nude mice. Tumors were implanted and grown for a minimum of 10 d before receiving intratumoral injection of 0.2 mg DOX (20 μL). 1 or 1-D (5-15 MBq/135-405 μCi) was injected through the tail vein for PET imaging 4 d post treatment. Static PET scans (5 min) were performed 65, 125 and 182 mins post tracer injection.

[4] = Water proton r1 relaxivity measurement; type: physicochemical; settings: 1 T
Method: Water proton r1 relaxivities of probe 15 and 1-ctrl (19) before and after caspase-3 incubation were then measured at 1, 1.5 and 3 T. For comparison, the isolated cyclized products 2-I and 2-II were also measured.
A series of solutions containing contrast agents with five different concentrations (0.05-0.5 mM) in Caspase buffer (pH 7.4) were treated with or without Casp-3 (50 nM) at 37° C. overnight. The solutions were placed in PCR tubes, bundled together, and MR-imaged at 1 T (Bruker Icon, Bruker BioSpin Corp.), […], 1.5 and 3 T (Signa HDx, GE Healthcare) at room temperature.
The scanning procedure began with a localizer and then consisted of a series of inversion-prepared fast spin echo scans, identical in all aspects (TR 8000 ms (6000 ms for Bruker Icon), TE minimum, field of view 6 cm, slice thickness 2 mm, matrix 128×128, NEX 1) except for the inversion time (TI) that was varied as: 4000, 2400, 1200, 800, 600, 400, 300, 200, 100, and 50 ms. For quantitative data analysis, the acquired MR images were transferred as DICOM images to an offline workstation, and signal intensities were extracted from each of the 5 samples at each of the 10 TI times by manual region of interest (ROI) placement and voxel averaging within the ROI.
Signal intensity versus TI relationships were fit to the following exponential T1 recovery model by non-linear least squares regression: SI (TI)=S0[1−2*exp(−TI/T1)+exp(−TR/T1)]. Relaxation rates (R1) were determined as 1/T1. Longitudinal relaxivities (r1, units of mM^−1s^−1) were calculated as the slope of R1 vs [Gd] after the determination of true Gd concentration of each sample by the ICP-MS measurement.

[5] = system: HeLa cells; assay: ICP-MS cellular uptake of Gd in HeLa cells; type: cell-based, human; settings: 250 μM, 24 h
Method: The cellular uptake of Gd was studied by inductively-coupled plasma mass spectrometry (ICP-MS) analysis of the amount of Gd in viable and apoptotic cells after incubation with probe 15 (50-250 μM) for 24 h. […] This uptake enhancement was inhibitable by Z-VAD-fmk (50 μM), confirming the caspase-3-dependent accumulation of probe 15 in apoptotic cells.

[6] = system: subcutaneous HeLa tumors; assay: In vivo MR imaging of doxorubicin-treated HeLa tumors; design: species or system mouse; settings: up to 4 h
Method: Evaluation of activatable contrast agent probe 15 for MR imaging of caspase-3 activity in vivo was performed in nude mice bearing subcutaneous HeLa tumors. Tumors were implanted and grown for 10-15 days before receiving intratumoral injections of two doses of 0.2 mg doxorubicin separated by 2 days. Probe 15 or 1-ctrl (19) (0.1 mmol kg^−1) was injected intravenously the day before treatment (baseline) and four days post-treatment (treated). Spin-echo T1-weighted multislice MR images at 1 T were recorded before (pre-contrast) and every 4 min after contrast agent administration (post-contrast), and scanning was carried out for 4 h post-contrast for each mouse. Much brighter MR signals (T1 contrast) were observed 40 and 120 min after injection with probe 15 in treated tumors as compared to that in baseline tumors (FIG. 29A), or in treated tumors with 1-ctrl (19) (FIG. 29B).
In vivo MR imaging was performed on an Aspect M2 1T permanent magnet (Aspect Imaging, Shoham, Israel) using a 40 mm Transmit/Receive mouse body coil. During imaging, the animals were anaesthetized with isofluorane and their respiration and body temperature were constantly monitored. Intravenous contrast injection at 0.1 mmol/kg concentration was administered in a 100 μL volume for every imaging session. Multi-slice (312 μm in-plane, 12 slices with 1 mm thickness) T1-weighted spin echo images (TE/TR=8.9/250 ms, matrix 128×128, FOV=40 mm, NEX=6) were acquired, one before contrast injection and then every 4 min up to 4 h after contrast injection. A 1 mM Dotarem reference tube was inserted in the field of view to enable inter-session variability correction during post-processing. Each animal underwent two imaging session; one before DOX treatment (baseline), and one after DOX treatment (treated).
Acquired MR data were transferred as DICOM images to an offline workstation and ImageJ (NIH) was used for post processing and quantitative image analysis. This consisted of manual segmentation of tumor ROI for each slice, slice-wise normalization of mean tumor signal intensity with the 1 mM Dotarem reference standard to account for inter-session variability, followed by combining these normalized, slice-wise values to generate mean volumetric tumor signal intensities (SI) for each time point.
Signal enhancement was calculated at each time point as the difference between the tumor SI at that time point and the tumor SI in the pre-contrast (t=0) dataset. SE(t)=SI(t)−SI(t=0); for each mouse, for every session
This metric was used to quantify the difference in SE between the baseline (before DOX treatment) session and the treated session for each mouse, as a means to tease out the difference between the two contrast agents, probe 1 and 1-cntl (19) over the time course of the imaging session. % D(t)=[SE(t,treated)−SE(t,baseline)]/SE(t,baseline); for each mouse.

[7] = molecular target: T1, caspase-3; assay: HPLC assay of caspase-3-triggered cyclization of MRI probe 15; type: biochemical; design: purchased Sigma; host or cells: E. coli
Method: The progression of caspase-3-triggered intramolecular cyclization of probe 15 in solution was investigated by incubation (200 μM) with recombinant human caspase-3 (50 nM) using high-performance liquid chromatography (HPLC). […] More than 90% of probe 15 and its disulfide bond reduced intermediates could be converted after 5 h (FIG. 27B).

[8] = system: HeLa cell pellets; assay: MRI T1 of HeLa cell pellets at 1 T; type: cell-based, human; settings: 250 μM, 24 h
Description: Thus, higher caspase-3 activity in apoptotic cells can trap probe 15 inside cells, resulting in higher MRI contrast for cell apoptosis imaging.

SMILES | intact tracer in mouse serum [1] | cleavage by caspase-3 [2] | uptake difference between before and after treatment ([3]; control tracer) | change of T/M ratio ([3]; mouse, in vivo) | uptake in treated and non-treated tumors compared with 1 ([3]; mouse, in vivo) | reduction of relaxivity after incubation with caspase-3 [4] | uptake of Gd in STS-treated cells compared with probe 15 [5] | difference in SI enhancement between treated and baseline tumors [6] | products observed after incubation with caspase-3 [7] | r1 relaxivity without caspase-3 activation [4] | difference in T1 between STS-treated and non-treated cells [8]
CSCC(NC(=O)C(CC(=O)O)NC(=O)C(NC(=O)C(CCC(=O)O)NC(=O)C(CC(=O)O)NC(C)=O)C(C)C)C(=O)NC(Cc1cn(CCOCCOCCOCC[18F])nn1)C(=O)Nc1ccc2nc(C3=NC(C(=O)NCCCOc4ccc5ncccc5c4)CS3)sc2c1 (stereo not drawn) [1-D] | 90% | could not be cleaved by caspase-3 | less than 0.2 % ID/g | did not show significant increases | much lower than that of 1 |  |  |  |  |  | 
CCSSCC(NC(=O)C(CC(=O)O)NC(=O)C(NC(=O)C(CCC(=O)O)NC(=O)C(CC(=O)O)NC(C)=O)C(C)C)C(=O)NC(CCCCNC(=O)CN1CCN(CC(=O)[O-])CCN(CC(=O)[O-])CCN(CC(=O)[O-])CC1)C(=O)Nc1ccc2nc(C3=NC(C(=O)NCCCOc4ccc5ncccc5c4)CS3)sc2c1.[Gd+3] (stereo not drawn) [1-ctrl (19)] (Ac-DEVDC(SEt)K(DOTA)[X1]-X3; configuration not given here) |  |  |  |  |  | 14% | much lower uptake of Gd | no significant difference in SI enhancement | only the DEVD peptide cleaved and disulfide reduced product was observed |  | 
CNC[C@H](O)[C@@H](O)[C@H](O)[C@H](O)CO.O=C([O-])CN1CCN(CC(=O)[O-])CCN(CC(=O)O)CCN(CC(=O)[O-])CC1.[Gd+3] [Dotarem, reference compound] |  |  |  |  |  |  | much lower uptake of Gd |  |  | 4.8 mM⁻¹ s⁻¹ | no significant reduction in T1
